Values quoted from earlier work as cited in patent US10736868B2, “Compositions comprising rumenic acid-rich conjugated linoleic acid for brain health” (STEPAN SPECIALTY PRODUCTS, LLC, priority 2016, dated 2020).
Where two headings read alike, the source gives them in different places. Values belong to the molecule of their own block, whether it stands above or below them.

Experiments:
cognitive function [1] = conditions: hypertensive older adults
cognitive function [2] = conditions: hypertensive older adults; remark: listed apart in the source
[3] = test system: allergic responses mediated by inflammation; conditions: 8 weeks; young men and women with birch pollen allergy
PPARγ [4] = molecular target: T1, PPARγ (Homo sapiens, UniProt P37231); conditions: human epithelial cells
T1 construct: host or cells: human epithelial cells
T1 sequence (P37231 1-505): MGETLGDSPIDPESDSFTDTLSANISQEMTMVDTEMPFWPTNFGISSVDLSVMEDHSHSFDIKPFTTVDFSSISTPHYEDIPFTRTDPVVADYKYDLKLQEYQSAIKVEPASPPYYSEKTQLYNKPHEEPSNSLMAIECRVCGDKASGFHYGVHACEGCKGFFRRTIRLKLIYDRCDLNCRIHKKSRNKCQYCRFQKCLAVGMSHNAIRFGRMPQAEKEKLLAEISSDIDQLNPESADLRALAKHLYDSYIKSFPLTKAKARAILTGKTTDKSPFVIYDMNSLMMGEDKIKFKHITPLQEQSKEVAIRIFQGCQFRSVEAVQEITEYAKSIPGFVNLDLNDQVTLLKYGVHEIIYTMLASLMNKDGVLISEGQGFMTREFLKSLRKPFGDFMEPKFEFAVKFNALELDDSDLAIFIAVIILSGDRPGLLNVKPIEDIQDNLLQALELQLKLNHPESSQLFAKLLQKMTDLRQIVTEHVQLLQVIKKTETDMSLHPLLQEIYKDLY

PPARγ [5] = molecular target: T2, PPARγ (Mus musculus, UniProt P37238); conditions: mouse macrophage cells
T2 construct: host or cells: mouse macrophage cells
T2 sequence (P37238 1-505): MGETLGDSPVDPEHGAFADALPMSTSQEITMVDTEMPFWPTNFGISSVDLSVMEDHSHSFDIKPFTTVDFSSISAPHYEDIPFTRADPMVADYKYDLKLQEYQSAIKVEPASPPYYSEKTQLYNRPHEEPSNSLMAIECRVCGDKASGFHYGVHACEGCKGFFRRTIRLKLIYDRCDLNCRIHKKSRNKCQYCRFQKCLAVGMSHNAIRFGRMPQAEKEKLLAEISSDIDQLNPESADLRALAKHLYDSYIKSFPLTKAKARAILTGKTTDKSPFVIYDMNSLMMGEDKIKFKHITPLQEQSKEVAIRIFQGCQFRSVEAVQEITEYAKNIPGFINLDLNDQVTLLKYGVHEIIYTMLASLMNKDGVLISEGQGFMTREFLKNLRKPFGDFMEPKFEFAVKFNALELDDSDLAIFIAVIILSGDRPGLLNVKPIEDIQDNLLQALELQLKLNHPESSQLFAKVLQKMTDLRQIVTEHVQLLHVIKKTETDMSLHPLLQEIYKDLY

Compound: CCCCc1nc(Cl)c(CO)n1Cc1ccc(-c2ccccc2-c2nn[nH]n2)cc1 [losartan]
verbal fluency (cognitive function [1]): not | word list memory and recall (cognitive function [1]): improved

Compound: CCCCC(=O)N(Cc1ccc(-c2ccccc2-c2nnn[nH]2)cc1)[C@H](C(=O)O)C(C)C [valsartan]
identification, verbal fluency, or word list recognition (cognitive function [2]): did not influence | word list memory and recall (cognitive function [2]): improved

inflammatory responses via activation of PPARγ (PPARγ [4]): reduced | PPARγ activation (PPARγ [5]): activated
Compound: CCCCCC/C=C/C=C\CCCCCCCC(=O)O [RA, cis-9, trans-11 linoleic acid]
allergic responses mediated by inflammation [3]: reduced
